target: human GPR40 (Homo sapiens (Human), UniProt O14842); test: GPR40 Calcium Flux Assay; assay type: cell-based; details: transfected HEK293 cells stably expressing human GPR40; Ca2+ mobilization; mean data; read-out: hGPR40 Ca^2+ Assay EC50;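 also: calcium flux followed with the Fluo-8 fluorescent dye, intensity read each second over 8 min as compounds were added to the cells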
Sequence (O14842 whole entry): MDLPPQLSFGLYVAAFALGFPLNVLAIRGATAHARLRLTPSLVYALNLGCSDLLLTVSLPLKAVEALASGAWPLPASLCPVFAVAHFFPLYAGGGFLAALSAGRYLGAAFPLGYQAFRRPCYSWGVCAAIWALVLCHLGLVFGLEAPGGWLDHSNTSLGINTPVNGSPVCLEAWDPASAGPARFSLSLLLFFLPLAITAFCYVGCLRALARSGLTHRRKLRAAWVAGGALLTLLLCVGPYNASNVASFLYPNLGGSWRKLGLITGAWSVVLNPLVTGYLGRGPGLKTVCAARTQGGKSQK

How did the EC50 turn out when CC#C[C@@H](Cc1nnn[nH]1)c1ccc(OCc2cc3c(-c4ccc(OC)cc4C)csc3cn2)cc1 [Cpd 52, (2S)-5-((4-(1-(1H-Tetrazol-5-yl)pent-3-yn-2-yl)phenoxy)methyl)-3-(4-methoxy-2-methylphenyl)thieno[2,3-c]pyridine] was run?
Its EC50 is 1 nM.

With CC#C[C@@H](Cc1nnn[nH]1)c1ccc(OCc2ccc3scc(-c4cccc5c4OCCO5)c3c2)cc1 [Cpd 27, (2S)-5-(2-(4-((3-(2,3-Dihydrobenzo[b][1,4]dioxin-5-yl)benzo[b]thiophen-5-yl)methoxy)phenyl)pent-3-yn-1-yl)-1H-tetrazole] as the compound, how does the EC50 read?
Its EC50 is 61 nM.

For CC#C[C@@H](Cc1nnn[nH]1)c1ccc(OCc2ccc3scc(C4CCCC4)c3c2)cc1 [Cpd 56, (2S)-5-(2-(4-((3-Cyclopentylbenzo[b]thiophen-5-yl)methoxy)phenyl)pent-3-yn-1-yl)-1H-tetrazole], which EC50 is on record?
The EC50 was 54 nM.

Which EC50 does the source give for CC#C[C@@H](Cc1nnn[nH]1)c1ccc(OCc2ccc3scc(-c4cc(Cl)ncc4C)c3c2)cc1 [Cpd 5, (2S)-4-(5-((4-(1-(1H-Tetrazol-5-yl)pent-3-yn-2-yl)phenoxy)methyl)benzo[b]thiophen-3-yl)-2-chloro-5-methylpyridine] here?
Its EC50 is 65 nM.

How did the EC50 turn out when CC#C[C@@H](Cc1nnn[nH]1)c1ccc(OCc2ccc3scc(-c4ccccc4Cl)c3c2)cc1 [Cpd 32, (2S)-5-(2-(4-((3-(2-Chlorophenyl)benzo[b]thiophen-5-yl)methoxy)phenyl)pent-3-yn-1-yl)-1H-tetrazole] was run?
Its EC50 is 11 nM.

Which EC50 does the source give for CC#C[C@@H](Cc1nnn[nH]1)c1ccc(OCc2ccc3scc(-c4ccc(OC)cc4C)c3n2)cc1 [Cpd 54, (2S)-5-((4-(1-(1H-Tetrazol-5-yl)pent-3-yn-2-yl)phenoxy)methyl)-3-(4-methoxy-2-methylphenyl)thieno[3,2-b]pyridine] here?
The EC50 was 180 nM.

CC#C[C@@H](Cc1nnn[nH]1)c1ccc(OCc2ccc3sccc3c2)cc1 [Cpd 60, (2S)-5-(2-(4-(Benzo[b]thiophen-5-ylmethoxy)phenyl)pent-3-yn-1-yl)-1H-tetrazole] was tested. Which EC50 did it give?
Its EC50 is 110 nM.

With CC#C[C@@H](Cc1nnn[nH]1)c1ccc(OCc2ccc3scc(-c4nccnc4C)c3c2)cc1 [Cpd 24, (2S)-2-(5-((4-(1-(1H-Tetrazol-5-yl)pent-3-yn-2-yl)phenoxy)methyl)benzo[b]thiophen-3-yl)-3-methylpyrazine] as the compound, how does the EC50 read?
Its EC50 is 550 nM.

How did the EC50 turn out when CC#C[C@@H](Cc1nnn[nH]1)c1ccc(OCc2ccc3scc(-c4ccccc4C)c3n2)cc1 [Cpd 53, (2S)-5-((4-(1-(1H-Tetrazol-5-yl)pent-3-yn-2-yl)phenoxy)methyl)-3-(2-methylphenyl)thieno[3,2-b]pyridine] was run?
Its EC50 is 170 nM.

Which EC50 does the source give for CC#C[C@@H](Cc1nnn[nH]1)c1ccc(OCc2ccc3scc(-c4ccc(OCC5(O)CCS(=O)(=O)CC5)cc4C)c3c2)cc1 [Cpd 6, (2S)-4-((4-(5-((4-(1-(1H-Tetrazol-5-yl)pent-3-yn-2-yl)phenoxy)methyl)benzo[b]thiophen-3-yl)-3-methylphenoxy)methyl)-4-hydroxytetrahydro-2H-thiopyran 1,1-dioxide] here?
Its EC50 is 190 nM.

Which EC50 does the source give for CC#C[C@@H](Cc1nnn[nH]1)c1ccc(OCc2cc(C)c3scc(CCCC)c3c2)cc1 [Cpd 64, (2S)-5-(2-(4-((3-Butyl-7-methylbenzo[b]thiophen-5-yl)methoxy)phenyl)pent-3-yn-1-yl)-1H-tetrazole] here?
The EC50 was 330 nM.

How did the EC50 turn out when CC#C[C@@H](Cc1nnn[nH]1)c1ccc(OCc2ccc3scc(C(C)C)c3c2)cc1 [Cpd 58, (2S)-5-(2-(4-((3-Isopropylbenzo[b]thiophen-5-yl)methoxy)phenyl)pent-3-yn-1-yl)-1H-tetrazole] was run?
The EC50 was 100 nM.

How did the EC50 turn out when CC#C[C@@H](Cc1nnn[nH]1)c1ccc(OCc2ccc3scc(-c4ccc(S(C)(=O)=O)cc4C)c3c2)cc1 [Cpd 14, (2S)-5-(2-(4-((3-(2-Methyl-4-(methylsulfonyl)phenyl)benzo[b]thiophen-5-yl)methoxy)phenyl)pent-3-yn-1-yl)-1H-tetrazole] was run?
The EC50 was 130 nM.

Which EC50 does the source give for CC#C[C@@H](Cc1nnn[nH]1)c1ccc(OCc2ccc3scc(CCC)c3c2)cc1 [Cpd 59, (2S)-5-(2-(4-((3-Propylbenzo[b]thiophen-5-yl)methoxy)phenyl)pent-3-yn-1-yl)-1H-tetrazole] here?
Its EC50 is 130 nM.

CC#C[C@@H](Cc1nnn[nH]1)c1ccc(OCc2ccc3scc(-c4cccc(OCCOC)c4C)c3c2)nc1 [Cpd 42, (2R)-5-(1-(1H-Tetrazol-5-yl)pent-3-yn-2-yl)-2-((3-(3-(2-methoxyethoxy)-2-methylphenyl)benzo[b]thiophen-5-yl)methoxy)pyridine] was tested. Which EC50 did it give?
The EC50 was 120 nM.

With CC#C[C@@H](Cc1nnn[nH]1)c1ccc(OCc2cnc3scc(-c4ccccc4C)c3c2)cc1 [Cpd 49, (2S)-5-((4-(1-(1H-Tetrazol-5-yl)pent-3-yn-2-yl)phenoxy)methyl)-3-(2-methylphenyl)thieno[2,3-b]pyridine] as the compound, how does the EC50 read?
Its EC50 is 10 nM.

With CC#C[C@@H](Cc1nnn[nH]1)c1ccc(OCc2ccc3scc(-c4c(C)cccc4C)c3c2)cc1 [Cpd 20, (2S)-5-(2-(4-((3-(2,6-Dimethylphenyl)benzo[b]thiophen-5-yl)methoxy)phenyl)pent-3-yn-1-yl)-1H-tetrazole] as the compound, how does the EC50 read?
The EC50 was 24 nM.

CC#C[C@@H](Cc1nnn[nH]1)c1ccc(OCc2ccc3scc(-c4cc(NS(C)(=O)=O)ccc4C)c3c2)cc1 [Cpd 29, (2S)—N-(3-(5-((4-(1-(1H-tetrazol-5-yl)pent-3-yn-2-yl)phenoxy)methyl)benzo[b]thiophen-3-yl)-4-methylphenyl)methanesulfonamide] was tested. Which EC50 did it give?
Its EC50 is 420 nM.

CC#C[C@@H](Cc1nnn[nH]1)c1ccc(OCc2ccc3scc(-c4cccc5c4CCN5C(=O)CC)c3c2)cc1 [Cpd 28, (2S)-1-(4-(5-((4-(1-(1H-tetrazol-5-yl)pent-3-yn-2-yl)phenoxy)methyl)benzo[b]thiophen-3-yl)indolin-1-yl)propan-1-one] was tested. Which EC50 did it give?
Its EC50 is 27 nM.

For CC#C[C@@H](Cc1nnn[nH]1)c1ccc(OCc2ccc3scc(-c4ncnn4C)c3c2)cc1 [Cpd 23, (2S)-5-(2-(4-((3-(1-Methyl-1H-1,2,4-triazol-5-yl)benzo[b]thiophen-5-yl)methoxy)phenyl)pent-3-yn-1-yl)-1H-tetrazole], which EC50 is on record?
The EC50 was 1740 nM.

With CC#C[C@@H](Cc1nnn[nH]1)c1ccc(OCc2ccc3scc(-c4ncc(OCCOC)cc4C)c3c2)cc1 [Cpd 26, (2S)-2-(5-((4-(1-(1H-Tetrazol-5-yl)pent-3-yn-2-yl)phenoxy)methyl)benzo[b]thiophen-3-yl)-5-(2-methoxyethoxy)-3-methylpyridine] as the compound, how does the EC50 read?
Its EC50 is 34 nM.

CC#C[C@@H](Cc1nnn[nH]1)c1ccc(OCc2ccc3scc(-c4ccc(OC5CCOCC5)cc4C)c3c2)cc1 [Cpd 9, (2S)-5-(2-(4-((3-(2-Methyl-4-((tetrahydro-2H-pyran-4-yl)oxy)phenyl)benzo[b]thiophen-5-yl)methoxy)phenyl)pent-3-yn-1-yl)-1H-tetrazole] was tested. Which EC50 did it give?
Its EC50 is 270 nM.

Which EC50 does the source give for CC#C[C@@H](Cc1nnn[nH]1)c1ccc(OCc2ccc3scc(-c4ccc(C5CCS(=O)(=O)CC5)cc4C)c3c2)cc1 [Cpd 17, (2S)-4-(4-(5-((4-(1-(1H-Tetrazol-5-yl)pent-3-yn-2-yl)phenoxy)methyl)benzo[b]thiophen-3-yl)-3-methylphenyl)tetrahydro-2H-thiopyran 1,1-dioxide] here?
The EC50 was 97 nM.

Which EC50 does the source give for CC#C[C@@H](Cc1nnn[nH]1)c1ccc(OCc2ccc3scc(-c4cc(OCCOC)cnc4C)c3c2)cc1 [Cpd 33, (2S)-3-(5-((4-(1-(1H-Tetrazol-5-yl)pent-3-yn-2-yl)phenoxy)methyl)benzo[b]thiophen-3-yl)-5-(2-methoxyethoxy)-2-methylpyridine] here?
Its EC50 is 8 nM.

How did the EC50 turn out when CC#C[C@@H](Cc1nnn[nH]1)c1ccc(OCc2ccc3scc(-c4ccc(OCCOC)cc4C)c3c2)nc1 [Cpd 41, (2R)-5-(1-(1H-Tetrazol-5-yl)pent-3-yn-2-yl)-2-((3-(4-(2-methoxyethoxy)-2-methylphenyl)benzo[b]thiophen-5-yl)methoxy)pyridine] was run?
Its EC50 is 19 nM.

CC#C[C@@H](Cc1nnn[nH]1)c1ccc(OCc2ccc3scc(-c4ccccc4C)c3c2)nc1 [Cpd 40, (2R)-5-(1-(1H-Tetrazol-5-yl)pent-3-yn-2-yl)-2-((3-(2-methylphenyl)benzo[b]thiophen-5-yl)methoxy)pyridine] was tested. Which EC50 did it give?
The EC50 was 58 nM.

Which EC50 does the source give for CC#C[C@@H](Cc1nnn[nH]1)c1ccc(OCc2ccc3sc(C)c(-c4ccc(OC5CCS(=O)(=O)CC5)cc4C)c3c2)cc1 [Cpd 18, 4-(4-(5-((4-((2S)-1-(1H-Tetrazol-5-yl)pent-3-yn-2-yl)phenoxy)methyl)-2-methylbenzo[b]thiophen-3-yl)-3-methylphenoxy)tetrahydro-2H-thiopyran 1,1-dioxide] here?
The EC50 was 80 nM.

CC#C[C@@H](Cc1nnn[nH]1)c1ccc(OCc2cc(C)c3scc(C4CCCC4)c3c2)cc1 [Cpd 65, (2S)-5-(2-(4-((3-Cyclopentyl-7-methylbenzo[b]thiophen-5-yl)methoxy)phenyl)pent-3-yn-1-yl)-1H-tetrazole] was tested. Which EC50 did it give?
The EC50 was 440 nM.

Which EC50 does the source give for CC#C[C@@H](Cc1nnn[nH]1)c1ccc(OCc2ccc3scc(-c4cnc(OCCOC)cc4C)c3c2)cc1 [Cpd 21, (2S)-5-(5-((4-(1-(1H-Tetrazol-5-yl)pent-3-yn-2-yl)phenoxy)methyl)benzo[b]thiophen-3-yl)-2-(2-methoxyethoxy)-4-methylpyridine] here?
The EC50 was 51 nM.

With CC#C[C@@H](Cc1nnn[nH]1)c1ccc(OCc2ccc3scc(-c4cccc5c4CCC(C)(C)O5)c3c2)cc1 [Cpd 30, (2S)-5-(2-(4-((3-(2,2-Dimethylchroman-5-yl)benzo[b]thiophen-5-yl)methoxy)phenyl)pent-3-yn-1-yl)-1H-tetrazole] as the compound, how does the EC50 read?
Its EC50 is 430 nM.

Which EC50 does the source give for CC#C[C@@H](Cc1nnn[nH]1)c1ccc(OCc2ccc3scc(-c4ccccc4Br)c3c2)cc1 [Cpd 4, (2S)-5-(2-(4-((3-(2-Bromophenyl)benzo[b]thiophen-5-yl)methoxy)phenyl)pent-3-yn-1-yl)-1H-tetrazole] here?
Its EC50 is 20 nM.

For CC#C[C@@H](Cc1nnn[nH]1)c1ccc(OCc2cc(C)c3scc(C4CCCCC4)c3c2)cc1 [Cpd 66, (2S)-5-(2-(4-((3-Cyclohexyl-7-methylbenzo[b]thiophen-5-yl)methoxy)phenyl)pent-3-yn-1-yl)-1H-tetrazole], which EC50 is on record?
Its EC50 is 1120 nM.

For CC#C[C@@H](Cc1nnn[nH]1)c1ccc(OCc2cc3c(-c4ccccc4C)csc3cn2)cc1 [Cpd 51, (2S)-5-((4-(1-(1H-Tetrazol-5-yl)pent-3-yn-2-yl)phenoxy)methyl)-3-(2-methylphenyl)thieno[2,3-c]pyridine], which EC50 is on record?
Its EC50 is 3 nM.

Source: patent US10106553B2, “Substituted benzothiophenyl derivatives as GPR40 agonists for the treatment of type II diabetes” (Janssen Pharmaceutica NV, priority 2016, dated 2018)
